Results taken from patent publication US10435388B2, “Selective inhibitors of clinically important mutants of the EGFR tyrosine kinase” (CS PHARMATECH LIMITED, priority 2016, dated 2019).
pIC50: −log10 of the molar value. Structures can show the parent of a compound that is named as a salt.

How the values were obtained:
Conditions in all cases: cellular proliferation, several runs
[1] = system: H1975 cells (DM); assay: H1975 inhibition assay (cell proliferation), Method B; type: cell-based
Method: (§1) Cell Proliferation Assays—Method B
H1975 Inhibition Assay (Cell Proliferation).
(§2) Test compounds were dissolved in DMSO at 30 mM.
(§3) The final concentration was 1,000 cells/well. Add medium only as low control. […] 5% CO2 incubator for 72 hours.
(§4) After 72 hours incubation, remove the plates from incubator and equilibrate at room temperature for 15 minutes. Incubate the CellTiter Glo reagents (Promega, G9243) at 37° C. before the experiment. The buffer was equilibrated to room temperature and used to dissolve the substrate. To determine the cell viability, add 40 μL of CellTiter-Glo reagent into each well to be detected (at 1:1 to culture medium). Then the place the plates at room temperature for 30 min followed by read on EnSpire (PerkinElmer).
(§5) For estimation of IC50, the luminescence readout are transformed to % Inhibition by applying the following equation: The IC50 was then
(§6) [formula] calculated by fitting in XLFit to a four parameters logistic curve.

[2] = system: A431 cells (WT); assay: A431 inhibition assay (cell proliferation), Method B; type: cell-based, human
Method: as §1
A431 Inhibition Assay, (Cell Proliferation).
The rest procedure was conducted in the same manner as described above for H1975 cells.

[3] = system: PC9 cells (SM); assay: PC-9 growth inhibition assay (cell proliferation), Method B; type: cell-based, human
Method: as §1, §2, §3, §4, §5, §6
PC-9 Growth Inhibition Assay (Cell Proliferation).
The inhibition assay of PC-9 cells was conducted in the same manner as described above for H1975 cells.

SMILES	pIC50 ([1]; Homo sapiens, NCI-H1975, 72 h)	pIC50 ([2]; Homo sapiens, A-431, 72 h)	pIC50 ([3]; Homo sapiens, PC-9, 72 h)	pIC50 ([1]; 72 h, hydrochloride)	pIC50 ([2]; 72 h, hydrochloride)	pIC50 ([3]; 72 h, hydrochloride)	pIC50 ([2]; 72 h)	pIC50 ([3]; 72 h)
C=CC(=O)Nc1cc(Nc2nccc(-c3c[nH]c4c(C(=O)NC)cccc34)n2)c(OC)cc1N(C)CCN(C)C [Example 39, N-Methyl 3-(2-((5-acrylamido-4-((2-(dimethylamino)ethyl)(methyl)amino)-2-methoxyphenyl)amino)pyrimidin-4-yl)-1H-indole-7-carboxamide]	9.28	7.37	9.13	–	–	–	–	–
C=CC(=O)Nc1cc(Nc2nccc(-n3cc(-c4ccn[nH]4)c4ccccc43)n2)c(OC)cc1N(C)CCN(C)C [Example 74, N-(5-((4-(3-(1H-Pyrazol-3-yl)-1H-indol-1-yl)pyrimidin-2-yl)amino)-2-((2-(dimethylamino)ethyl)(methyl)amino)-4-methoxyphenyl) acrylamide]	7.55	6.40	8.24	–	–	–	–	–
C=CC(=O)Nc1cc(Nc2nccc(-c3cc(C(N)=O)c4[nH]cc(C)c4c3)n2)c(OC)cc1N(C)CCN(C)C [Example 68, 5-(2-(5-Acrylamido-4-((2-(dimethylamino)ethyl)(methyl)amino)-2-methoxyphenylamino)pyrimidin-4-yl)-3-methyl-1H-indole-7-carboxamide]	9.07	6.58	8.63	–	–	–	–	–
C=CC(=O)Nc1cc(Nc2ncc(Cl)c(-n3cc(C(C)=O)c4ccccc43)n2)c(OC)cc1N(C)CCN(C)C [Example 73, N-(5-(4-(3-Acetyl-1H-indol-1-yl)-5-chloropyrimidin-2-ylamino)-2-((2-(dimethylamino)ethyl)(methyl)amino)-4-methoxyphenyl) acrylamide]	7.90	6.37	8.48	–	–	–	–	–
C=CC(=O)Nc1cc(Nc2nccc(-n3nc(NCC4CC4)c4ccccc43)n2)c(OC)cc1N(C)CCN(C)C [Example 66, N-(5-(4-(3-(Cyclopropylmethylamino)-1H-indazol-1-yl)pyrimidin-2-ylamino)-2-((2-(dimethylamino)ethyl)(methyl)amino)-4-methoxyphenyl) acrylamide]	8.30	8.22	8.71	–	–	–	–	–
C=CC(=O)Nc1cc(Nc2nccc(-c3ccc(C(N)=O)c4[nH]ccc34)n2)c(OC)cc1N(C)CCN(C)C [Example 64, 4-(2-(5-Acrylamido-4-((2-(dimethylamino)ethyl)(methyl)amino)-2-methoxyphenylamino)pyrimidin-4-yl)-1H-indole-7-carboxamide]	8.10	6.37	8.25	–	–	–	–	–
C=CC(=O)Nc1cc(Nc2nccc(-c3cc(C(N)=O)c4c(c3)c(Cl)cn4C)n2)c(OC)cc1N(C)CCN(C)C [Example 32, 5-(2-((5-Acrylamido-4-((2-(dimethylamino)ethyl)(methyl)amino)-2-methoxyphenyl)amino)pyrimidin-4-yl)-3-chloro-1N-methyl-1H-indole-7-carboxamide hydrochloride]	8.41	5.97	8.07	8.49	6.11	7.92	–	–
C=CC(=O)Nc1cc(Nc2nccc(-c3cnc(NC)c(C(N)=O)c3)n2)c(OC)cc1N(C)CCN(C)C [Example 28, 5-(2-((5-Acrylamido-4-((2-(dimethylamino)ethyl)(methyl)amino)-2-methoxyphenyl)amino)pyrimidin-4-yl)-2-(methylamino)nicotinamide]	–	5.65	7.66	–	–	–	5.77	7.58
C=CC(=O)Nc1cc(Nc2ncc(Cl)c(-c3cnc(NC)c(C(C)=O)c3)n2)c(OC)cc1N(C)CCN(C)C [Example 63]	8.52	6.28	8.24	–	–	–	–	–
C=CC(=O)Nc1cc(Nc2nccc(-n3nc(N(C)C)c4ccccc43)n2)c(OC)nc1N(C)CCN(C)C [Example 72, N-(5-((4-(3-(Dimethylamino)-1H-indazol-1-yl)pyrimidin-2-yl)amino)-2-((2-(dimethylamino)ethyl)(methyl)amino)-6-methoxypyridin-3-yl) acrylamide]	8.07	6.04	8.23	–	–	–	–	–
C=CC(=O)Nc1cc(Nc2nccc(-n3nc(N(C)CC)c4ccccc43)n2)c(OC)cc1N(C)CCN(C)C [Example 60, N-(5-(4-(3-(N-Ethyl-N-methylamino)-1H-indazol-1-yl)pyrimidin-2-ylamino)-2-(N-(2-(dimethylamino)ethyl)-N-methylamino)-4-methoxyphenyl) acrylamide]	8.09	6.26	7.95	–	–	–	–	–
C=CC(=O)Nc1cc(Nc2ncc(Cl)c(-n3nc(NC)c4ccccc43)n2)c(OC)cc1N(C)CCN(C)C [Example 52, N-(5-(5-Chloro-4-(3-(methylamino)-1H-indazol-1-yl)pyrimidin-2-ylamino)-2-(N-(2-(dimethylamino)ethyl)-N-methylamino)-4-methoxyphenyl) acrylamide]	8.39	6.49	7.76	–	–	–	–	–
C=CC(=O)Nc1cc(Nc2nccc(-c3cc(C)c[nH]c3=O)n2)c(OC)cc1N(C)CCN(C)C [Example 37, N-(2-((2-(Dimethylamino)ethyl)(methyl)amino)-4-methoxy-5-((4-(5-methyl-2-oxo-1,2-dihydropyridin-3-yl)pyrimidin-2-yl)amino)phenyl) acrylamide]	7.66	6.23	7.66	–	–	–	–	–
C=CC(=O)Nc1cc(Nc2nccc(-c3cc(NC)cc4c3ccn4C)n2)c(OC)cc1N(C)CCN(C)C [Example 40, N-(5-(4-(1-Methyl-6-(methylamino)-1H-indol-4-yl)pyrimidin-2-ylamino)-2-(N-(2-(dimethylamino)ethyl)-N-methylamino)-4-methoxyphenyl) acrylamide]	7.36	5.73	7.20	–	–	–	–	–
C=CC(=O)Nc1cc(Nc2nccc(-n3nc(Nc4ccccn4)c4ccccc43)n2)c(OC)cc1N(C)CCN(C)C [Example 58, N-(5-(4-(3-(Pyridin-2-ylamino)-1H-indazol-1-yl)pyrimidin-2-ylamino)-2-(N-(2-(dimethylamino)ethyl)-N-methylamino)-4-methoxyphenyl) acrylamide]	8.63	8.84	8.82	–	–	–	–	–
C=CC(=O)Nc1cc(Nc2ncc(Cl)c(-c3cc(C(N)=O)cc4c3ccn4C)n2)c(OC)cc1N(C)CCN(C)C [Example 47, 4-(2-(5-Acrylamido-4-((2-(dimethylamino)ethyl)(methyl)amino)-2-methoxyphenylamino)-5-chloropyrimidin-4-yl)-1-methyl-1H-indole-6-carboxamide]	8.06	6.39	7.91	–	–	–	–	–
C=CC(=O)Nc1cc(Nc2nccc(-n3cc(S(=O)(=O)NC)c4ccccc43)n2)c(OC)cc1N(C)CCN(C)C [Example 62]	8.65	7.36	9.03	–	–	–	–	–
C=CC(=O)Nc1cc(Nc2nccc(-n3cc(-c4cn[nH]c4)c4ccccc43)n2)c(OC)cc1N(C)CCN(C)C [Example 75, N-(5-((4-(3-(1H-Pyrazol-4-yl)-1H-indol-1-yl)pyrimidin-2-yl)amino)-2-((2-(dimethylamino)ethyl)(methyl)amino)-4-methoxyphenyl) acrylamide]	7.05	6.36	7.55	–	–	–	–	–
C=CC(=O)Nc1cc(Nc2nccc(-c3c[nH]c(=O)c4c3ccn4C)n2)c(OC)cc1N(C)CCN(C)C [Example 33, N-(2-((2-(Dimethylamino)ethyl)(methyl)amino)-4-methoxy-5-((4-(1N-methyl-7-oxo-6,7-dihydro-1H-pyrrolo[2,3-c]pyridin-4-yl)pyrimidin-2-yl)amino)phenyl) acrylamide]	8.20	7.05	8.00	–	–	–	–	–
C=CC(=O)Nc1cc(Nc2nccc(-c3c[nH]c4c(C(C)(C)C)cccc34)n2)c(OC)cc1N(C)CCN(C)C [Example 48, N-(5-(4-(7-t-Butyl-1H-indol-3-yl)pyrimidin-2-ylamino)-2-(N-(2-(dimethylamino)ethyl)-N-methylamino)-4-methoxyphenyl) acrylamide]	8.46	6.58	8.40	–	–	–	–	–
C=CC(=O)Nc1cc(Nc2nccc(-n3cc(-c4ccn[nH]4)c4ncccc43)n2)c(OC)cc1N(C)CCN(C)C [Example 76, N-(5-((4-(3-(1H-Pyrazol-5-yl)-1H-pyrrolo[3,2-b]pyridin-1-yl)pyrimidin-2-yl)amino)-2-((2-(dimethylamino)ethyl)(methyl)amino)-4-methoxyphenyl) acrylamide]	8.64	6.82	8.48	–	–	–	–	–
C=CC(=O)Nc1cc(Nc2nccc(-n3nc(N(C)C)c4ccccc43)n2)c(OC(C)C)nc1N(C)CCN(C)C [Example 70, N-(5-((4-(3-(dimethylamino)-1H-indazol-1-yl)pyrimidin-2-yl)amino)-2-((2-(dimethylamino)ethyl)(methyl)amino)-6-isopropoxypyridin-3-yl) acrylamide]	8.04	6.09	8.64	–	–	–	–	–
C=CC(=O)Nc1cc(Nc2nccc(-n3nc(NC4CC4)c4ccccc43)n2)c(OC)cc1N(C)CCN(C)C [Example 69, N-(5-(4-(3-(cyclopropylamino)-1H-indazol-1-yl)pyrimidin-2-ylamino)-2-((2-(dimethylamino)ethyl)(methyl)amino)-4-methoxyphenyl) acrylamide]	8.45	7.15	8.72	–	–	–	–	–
